What is called bioavailability is dose-corrected exposure relative to a reference, in per cent.

We go through 3 molecules from EP2210604A1, “PHARMACEUTICAL COMPOSITIONS COMBINING A NONSTEROIDAL ANTI-INFLAMMATORY AGENT AND A XANTHINE OXIDASE INHIBITING AGENT, WHICH CAN BE USED TO CONTROL AND TREAT GOUT, GOUTY ARTHRITIS AND RELATED DISEASES” (Espinosa Abdala, Leopoldo de Jesús, priority 2007, dated 2009).

A value given as a limit tells only on which side of the number the result lay.

In series [1] the test system is patients with Gouty arthritis. Put plainly: Clinical study (Phase I): combination of Allopurinol/Meloxicam vs independent delivery, 52 weeks follow-up. It counts as in vivo. As to conditions: for Uric Acid Average, baseline / Uric Acid Average, at the end of study: Allopurinol 300 mg per day, Meloxicam 15 mg per day, or combination 300 mg/15 mg, n=50 per group; for Uric Acid Average, at the end of study: end of study (52 weeks). The procedure:
A clinical study was carried out assessing the efficacy of a combination of Allopurinol/Meloxicam vs independent delivery of Allopurinol and Meloxicam in patients with Gouty arthritis.
There were 150 patients with gout and with uric acid levels at least of 8 mg/dL randomly selected for this study.
Main validation criterion was uric acid concentration of 6 mg/dL, in the last 3 monthly determinations. Secondary validation criteria included a reduction of incidence in gout worsening events.

In series [2] the test system is arthritic pain model in rat. Put plainly: PIFIR model: uric acid-induced arthritic pain model in rat, antinociceptive activity. As to conditions: oral; for DE50: dose causing 50% of maximum possible effect, drug alone. The procedure: An arthritic pain model in rat was determined for said purpose. Data were interpreted by a Surface Synergistic Interaction analysis (ISS) and an isobolographic analysis to determine the interaction nature. ISS was calculated from the total antinociceptive effect produced by the combination after subtracting the antinociceptive effect produced by drug separately.
For this study Wistar female rats were used [Crl (WI) BR] weighing between 180 to 200 gr. […] Number of animals in experiment was kept minimal and animals were kept in a room with climate and light control with a 12-hour light/dark cycle.
At the completion of study rats were sacrificed.
Animals were anesthesized with ether in a chamber (Pyrex glass dryer with ether vapor). Nociception was induced through a 0.05 mL uric acid intraarticular (ia) injection suspended in mineral oil in knee joint from right back leg. The suspension was prepared by milling 3.0 g. of uric acid with 10 mL of mineral oil in a glass mortar with pestle (Pyrex). Intraarticular injection was carried out through patellar ligament using a 1 mL glass syringe (Beckton Dickinson LTA, Brazil) with a 5 mm 24-gauge needle. An electrode was implanted immediately after to the plantar surface of each back claw between plantar pads. […] Contact time between each electrode from rat limb and cylinder was registered. […] This time was determined as zero time for measuring antinociceptive effects; these effects were measured every 30 minutes during the following 4 hours. This allowed determining the time course for antinociceptive effects in the same animal. Antinociception was considered as a recovery of contact time. Data are expressed as Functionality percentage index (IF%, that is, contact time on injected leg by the contact time in left leg, control, multiplied by 100). For the purpose of this study, nociception induction in experimental animals was unavoidable. However, care was taken to prevent an unnecessary suffering. All experiments were performed between 7:00 am and 2:00 pm.
Study data, tables and figures are expressed as IF%. Curves for IF% vs time were prepared for each treatment and the corresponding course time was obtained. Antinociception was estimated as a recovery of IF%. Accumulated antinociceptive effect during the whole observation period (4 hours) was determined as the area below the curve (ABC) from time course to obtain a dose-response curve and for analyzing the total antinociceptive effect obtained by analgesic agent whether alone or in combination.
ABC was calculated for each drug combination and for each of the components. […] If the […] ABC was higher than the theoretical sum, the result was considered enhancement; when it was similar to the theoretical sum then was determined to show additive antinociceptive effects. […] All values for each treatment are average ± S. E. M., for six animals. ABC values for drug combinations were compared with expected values using the Student test.
Doses which caused 50% of maximum possible effect (DE50) of each drug were calculated by performing a linear regression analysis of the linear portion from dose-response curves. The isobologram was prepared by using the DE50 when drugs were delivered alone or in combination. […] DE50 value from combination total dose was calculated from the dose-response curve of combined drugs. Statistical significance between additive theoretical point and DE50 experimental value was validated by using the Student test.

The conditions of series [3]: cited from earlier work.
Series [4] has as its system plasma proteins. As to conditions: cited from earlier work.

Turning to `Oc1ncnc2[nH]ncc12` [Allopurinol], in series [1] (along 9 to 52 weeks, comparison between groups), the “global incidence of acute events” value is listed as “similar”. In series [1], the “Uric Acid Average, baseline” value is 9 mg/dL and the “Uric Acid Average, at the end of study” value worked out at 7 mg/dL. For the same molecule, in series [1] (number of events per group of 50 patients, 52 weeks), the “adverse events reported (gastrointestinal upset)” value was “Six”. In addition, in series [2] (Allopurinol 10.0 mg/kg alone, 4 hours), the ABC amounted to 22.5 ± 9.3 au. Also, the ABC in series [2] (Allopurinol 17.78 mg/kg alone, 4 hours) was found to be 58.2 ± 23.7 au. In addition, the “antinociceptive efficacy (ABC)” value in series [2] (Allopurinol 56.23 mg/kg, 4 hours) is listed as 207.7 ± 24.7 au. In addition, in series [2] (Allopurinol at 100 mg/kg), the “side effects in animals” value was “did not cause side effects”. The “walking capability of treated rats” value in series [2] (Meloxicam 0.18-5.62 mg/kg, Allopurinol 3.16-56.23 mg/kg) is on record as “did not affect the walking capability”. Moreover, the DE50 in series [2] is 44.29 ± 0.06 mg/kg. Further, the “ingested drug excreted in stools” value in series [3] (in vivo) is reported as “About 20%”.
For `Cc1ccc(-c2cc(C(F)(F)F)nn2-c2ccc(S(N)(=O)=O)cc2)cc1` [Celecoxib], the “time to maximum plasma levels” value in series [3] (after oral dose) is “about 3 hours”. Moreover, in series [3] (as metabolites), the “dose recovered in feces” value is given as 57% and the “dose recovered in urine” value is on record as 27%. Also, the half-life entry in series [3] (clearance half-life) is on record as “about 11 hours”. Moreover, in series [3] (in vivo), the Plasmatic clearance result was “about 500 mL/min” and the distribution volume entry is recorded as “about 400 L”.
Take `Cc1cnc(NC(=O)C2=C(O)c3ccccc3S(=O)(=O)N2C)s1` [Meloxicam]: the “Uric Acid Average, baseline” value in series [1] amounted to 10 mg/dL. Besides, the “Uric Acid Average, at the end of study” value in series [1] turned out to be 9 mg/dL. Besides, the ABC in series [2] (Meloxicam 0.32 mg/kg alone, 4 hours) is 65.0 ± 9.6 au; in series [2] (Meloxicam 0.56 mg/kg alone, 4 hours) it was 98.7 ± 15.5 au; in series [2] (Meloxicam 1.78 mg/kg alone, 4 hours), 279.0 ± 15.5 au. For the same molecule, the “antinociceptive efficacy (ABC)” value in series [2] (Meloxicam 2.16 mg/kg (so in the source), 4 hours) is 295.8 ± 14.9 au. Also, the “antinociceptive effect (ABC)” value in series [2] (Meloxicam 3.16 mg/kg (maximum used dosage), 4 hours) is 295.8 ± 14.9 au. The DE50 in series [2] was 0.86 ± 0.10 mg/kg. In addition, the bioavailability in series [3] (oral) is given as 89%. Besides, the “adherence with plasma proteins” value in series [4] was > 99%.
